Measured values from PubChem BioAssay (NCI).
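Growth conditions: 96-well plates. Treatment: test compound, 48 hours, 5 concentrations. Analysis: linear interpolation between bracketing concentrations; unreached endpoints set to highest concentration. Definition used: TGI = concentration required for complete inhibition of growth.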

What was measured:
Assay in all cases: NCI anticancer screen, dose series, 48 h
786-0 renal = tested on: 786-0 renal
A549 NSCLC = tested on: A549 NSCLC
BT-549 breast = tested on: BT-549 breast
CAKI-1 renal = tested on: CAKI-1 renal
CCRF-CEM leukemia = tested on: CCRF-CEM leukemia
COLO 205 colon = tested on: COLO 205 colon
DU-145 prostate = tested on: DU-145 prostate
EKVX NSCLC = tested on: EKVX NSCLC
HCC-2998 colon = tested on: HCC-2998 colon
HCT-116 colon = tested on: HCT-116 colon
HCT-15 colon = tested on: HCT-15 colon
HOP-62 NSCLC = tested on: HOP-62 NSCLC
HOP-92 NSCLC = tested on: HOP-92 NSCLC
HS 578T breast = tested on: HS 578T breast
HT29 colon = tested on: HT29 colon
IGROV1 ovarian = tested on: IGROV1 ovarian
K-562 leukemia = tested on: K-562 leukemia
KM12 colon = tested on: KM12 colon
LOX IMVI melanoma = tested on: LOX IMVI melanoma
M14 melanoma = tested on: M14 melanoma
MALME-3M melanoma = tested on: MALME-3M melanoma
MDA-MB-231 breast = tested on: MDA-MB-231 breast
MDA-MB-435 = tested on: MDA-MB-435
MDA-N = tested on: MDA-N
MOLT-4 leukemia = tested on: MOLT-4 leukemia
NCI-H226 lung = tested on: NCI-H226 lung
NCI-H23 lung = tested on: NCI-H23 lung
NCI-H460 lung = tested on: NCI-H460 lung
NCI-H522 lung = tested on: NCI-H522 lung
NCI/ADR-RES ovarian = tested on: NCI/ADR-RES ovarian
OVCAR-3 ovarian = tested on: OVCAR-3 ovarian
OVCAR-4 ovarian = tested on: OVCAR-4 ovarian
OVCAR-5 ovarian = tested on: OVCAR-5 ovarian
OVCAR-8 ovarian = tested on: OVCAR-8 ovarian
PC-3 prostate = tested on: PC-3 prostate
RXF 393 renal = tested on: RXF 393 renal
SF-268 CNS = tested on: SF-268 CNS
SF-295 CNS = tested on: SF-295 CNS
SK-MEL-2 melanoma = tested on: SK-MEL-2 melanoma
SK-MEL-28 melanoma = tested on: SK-MEL-28 melanoma
SK-MEL-5 melanoma = tested on: SK-MEL-5 melanoma
SK-OV-3 ovarian = tested on: SK-OV-3 ovarian
SN12C renal = tested on: SN12C renal
SNB-19 CNS = tested on: SNB-19 CNS
SW-620 colon = tested on: SW-620 colon
T-47D breast = tested on: T-47D breast
TK-10 renal = tested on: TK-10 renal
U251 CNS = tested on: U251 CNS
UACC-257 melanoma = tested on: UACC-257 melanoma
UACC-62 melanoma = tested on: UACC-62 melanoma
UO-31 renal = tested on: UO-31 renal
A498 renal = tested on: A498 renal
ACHN renal = tested on: ACHN renal
HL-60(TB) leukemia = tested on: HL-60(TB) leukemia
MCF7 breast = tested on: MCF7 breast
RPMI-8226 leukemia = tested on: RPMI-8226 leukemia
SF-539 CNS = tested on: SF-539 CNS
SNB-75 CNS = tested on: SNB-75 CNS

## CC1=C[C@H](O)[C@@]2(C)[C@@H]([C@@H]1C)[C@H]1CC[C@@H]3[C@@]4(C)CC[C@H](O)C(C)(C)[C@@H]4CC[C@@]3(C)[C@]1(C)C[C@@H]2O
786-0 renal
  TGI: 28.2 µM
A549 NSCLC
  TGI: 26.9 µM
BT-549 breast
  TGI: 45.1 µM
CAKI-1 renal
  TGI: 36.6 µM
CCRF-CEM leukemia
  TGI: 40.5 µM
COLO 205 colon
  TGI: 37.9 µM
DU-145 prostate
  TGI: 31 µM
EKVX NSCLC
  TGI: 25.6 µM
HCC-2998 colon
  TGI: 33 µM
HCT-116 colon
  TGI: 25.1 µM
HCT-15 colon
  TGI: 41.3 µM
HOP-62 NSCLC
  TGI: 33.4 µM
HOP-92 NSCLC
  TGI: 29.6 µM
HS 578T breast
  TGI: 55 µM
HT29 colon
  TGI: 27.1 µM
IGROV1 ovarian
  TGI: 41.2 µM
K-562 leukemia
  TGI: 48.2 µM
KM12 colon
  TGI: 39.2 µM
LOX IMVI melanoma
  TGI: 54 µM
M14 melanoma
  TGI: 31.6 µM
MALME-3M melanoma
  TGI: 40.7 µM
MDA-MB-231 breast
  TGI: 35.1 µM
MDA-MB-435
  TGI: 39.3 µM
MDA-N
  TGI: 29.7 µM
MOLT-4 leukemia
  TGI: 34.5 µM
NCI-H226 lung
  TGI: 45.7 µM
NCI-H23 lung
  TGI: 45.3 µM
NCI-H460 lung
  TGI: 33.4 µM
NCI-H522 lung
  TGI: 38 µM
NCI/ADR-RES ovarian
  TGI: 44.5 µM
OVCAR-3 ovarian
  TGI: 31.4 µM
OVCAR-4 ovarian
  TGI: 33.7 µM
OVCAR-5 ovarian
  TGI: 29.4 µM
OVCAR-8 ovarian
  TGI: 48 µM
PC-3 prostate
  TGI: 35.1 µM
RXF 393 renal
  TGI: 34.1 µM
SF-268 CNS
  TGI: 25.3 µM
SF-295 CNS
  TGI: 31.1 µM
SK-MEL-2 melanoma
  TGI: 38.4 µM
SK-MEL-28 melanoma
  TGI: 34.4 µM
SK-MEL-5 melanoma
  TGI: 30.4 µM
SK-OV-3 ovarian
  TGI: 35.7 µM
SN12C renal
  TGI: 29.2 µM
SNB-19 CNS
  TGI: 30.1 µM
SW-620 colon
  TGI: 47.3 µM
T-47D breast
  TGI: 28.9 µM
TK-10 renal
  TGI: 36.8 µM
U251 CNS
  TGI: 35.2 µM
UACC-257 melanoma
  TGI: 34.5 µM
UACC-62 melanoma
  TGI: 35.3 µM
UO-31 renal
  TGI: 33.2 µM

## CC(C)OP(=O)(c1ccccc1)c1ccc2c(c1)OCCOCCOCCOCCO2 (configuration not stated)
786-0 renal
  TGI: > 100 µM
A498 renal
  TGI: > 100 µM
A549 NSCLC
  TGI: > 100 µM
ACHN renal
  TGI: > 100 µM
BT-549 breast
  TGI: > 100 µM
CCRF-CEM leukemia
  TGI: > 100 µM
COLO 205 colon
  TGI: > 100 µM
DU-145 prostate
  TGI: > 100 µM
EKVX NSCLC
  TGI: > 100 µM
HCC-2998 colon
  TGI: > 100 µM
HCT-116 colon
  TGI: > 100 µM
HCT-15 colon
  TGI: > 100 µM
HL-60(TB) leukemia
  TGI: > 100 µM
HOP-62 NSCLC
  TGI: > 100 µM
HS 578T breast
  TGI: > 100 µM
HT29 colon
  TGI: > 100 µM
IGROV1 ovarian
  TGI: > 100 µM
K-562 leukemia
  TGI: > 100 µM
KM12 colon
  TGI: > 100 µM
LOX IMVI melanoma
  TGI: > 100 µM
MALME-3M melanoma
  TGI: > 100 µM
MCF7 breast
  TGI: > 100 µM
MDA-MB-231 breast
  TGI: > 100 µM
MDA-MB-435
  TGI: > 100 µM
MDA-N
  TGI: > 100 µM
MOLT-4 leukemia
  TGI: > 100 µM
NCI-H226 lung
  TGI: > 100 µM
NCI-H23 lung
  TGI: > 100 µM
NCI-H460 lung
  TGI: > 100 µM
NCI-H522 lung
  TGI: > 100 µM
OVCAR-8 ovarian
  TGI: > 100 µM
PC-3 prostate
  TGI: > 100 µM
RPMI-8226 leukemia
  TGI: > 100 µM
SF-268 CNS
  TGI: > 100 µM
SF-295 CNS
  TGI: > 100 µM
SF-539 CNS
  TGI: > 100 µM
SK-MEL-28 melanoma
  TGI: > 100 µM
SK-MEL-5 melanoma
  TGI: > 100 µM
SK-OV-3 ovarian
  TGI: > 100 µM
SN12C renal
  TGI: > 100 µM
SNB-19 CNS
  TGI: > 100 µM
SNB-75 CNS
  TGI: > 100 µM
SW-620 colon
  TGI: > 100 µM
T-47D breast
  TGI: > 100 µM
TK-10 renal
  TGI: > 100 µM
UACC-257 melanoma
  TGI: > 100 µM
UACC-62 melanoma
  TGI: > 100 µM
UO-31 renal
  TGI: > 100 µM

## CC1(C(=O)O)CCC(C(=O)O)C(C)(C)O1 (configuration not stated)
A549 NSCLC
  TGI: > 100 µM
ACHN renal
  TGI: > 100 µM
BT-549 breast
  TGI: > 100 µM
CAKI-1 renal
  TGI: > 100 µM
CCRF-CEM leukemia
  TGI: > 100 µM
COLO 205 colon
  TGI: > 100 µM
DU-145 prostate
  TGI: > 100 µM
EKVX NSCLC
  TGI: > 100 µM
HCC-2998 colon
  TGI: > 100 µM
HCT-116 colon
  TGI: > 100 µM
HOP-62 NSCLC
  TGI: > 100 µM
HOP-92 NSCLC
  TGI: > 100 µM
HS 578T breast
  TGI: > 100 µM
HT29 colon
  TGI: > 100 µM
IGROV1 ovarian
  TGI: > 100 µM
K-562 leukemia
  TGI: > 100 µM
KM12 colon
  TGI: > 100 µM
LOX IMVI melanoma
  TGI: > 100 µM
M14 melanoma
  TGI: > 100 µM
MALME-3M melanoma
  TGI: > 100 µM
MCF7 breast
  TGI: > 100 µM
MDA-MB-435
  TGI: > 100 µM
MDA-N
  TGI: > 100 µM
MOLT-4 leukemia
  TGI: > 100 µM
NCI-H226 lung
  TGI: > 100 µM
NCI-H23 lung
  TGI: > 100 µM
NCI-H460 lung
  TGI: > 100 µM
NCI-H522 lung
  TGI: > 100 µM
NCI/ADR-RES ovarian
  TGI: > 100 µM
OVCAR-3 ovarian
  TGI: > 100 µM
OVCAR-4 ovarian
  TGI: > 100 µM
OVCAR-5 ovarian
  TGI: > 100 µM
OVCAR-8 ovarian
  TGI: > 100 µM
PC-3 prostate
  TGI: > 100 µM
RPMI-8226 leukemia
  TGI: > 100 µM
RXF 393 renal
  TGI: > 100 µM
SF-268 CNS
  TGI: > 100 µM
SF-295 CNS
  TGI: > 100 µM
SF-539 CNS
  TGI: > 100 µM
SK-MEL-2 melanoma
  TGI: > 100 µM
SK-MEL-28 melanoma
  TGI: > 100 µM
SK-MEL-5 melanoma
  TGI: > 100 µM
SK-OV-3 ovarian
  TGI: > 100 µM
SN12C renal
  TGI: > 100 µM
SNB-19 CNS
  TGI: > 100 µM
SNB-75 CNS
  TGI: > 100 µM
SW-620 colon
  TGI: > 100 µM
T-47D breast
  TGI: > 100 µM
TK-10 renal
  TGI: > 100 µM
U251 CNS
  TGI: > 100 µM
UACC-257 melanoma
  TGI: > 100 µM
UACC-62 melanoma
  TGI: > 100 µM
UO-31 renal
  TGI: > 100 µM
